Entries after “also recorded” stand apart in the source; their conditions may differ.
What was measured:
Format in all cases: cell-based, human
MCF-10 cells = assay: MTT cytotoxicity assay on non-tumoral MCF-10 cells; conditions: Homo sapiens, MCF10, 48 h incubation, IC50 ± SD, three experiments in triplicate
Method: (§1) In this study, we wondered whether semi-synthetic compounds have potential antitumoral properties against BC. Therefore, we were interested in investigating the effect of the compounds on the MCF-7 cell line. Firstly, we studied the effect on cell viability using a colorimetric MTT assay, which was performed to quantify the cytotoxic activity; each compound was evaluated at different concentrations (500−100−20−4−0.8−0.16−0.032−0 µM). Daunorubicin was also used as a positive control for comparison with a reference drug. […] Although the MCF-10 cell line provides a useful selectivity model, it may not fully represent the varying sensitivities of different normal cell types within a multicellular organism. The SI value indicates the ratio of toxicity in mammalian host cells to that in a tumoral cell. The data obtained in response to different concentrations of compounds were used to calculate the IC50 and corresponding SI values, as shown in Table 1.
(§2) The American Type Culture Collection (Rockville, MD, USA) supplied the following experimental cell lines: MCF-7, a human breast cancer cell line, and MCF-10A, a human epithelial breast cell line (ATCC N° CRL-10317). Both cell lines were grown in DMEM-F12 medium containing 10% FCS, 100 U/mL penicillin, 100 μg/mL streptomycin, and 1 mM glutamine. The cells were seeded at a concentration of 100 μL per well at a plating density of 3 × 10^3 cells/well and incubated for 24 h at 37 °C under 5% humidified CO2 to enable attachment. The cells were then treated with varying concentrations of synthesized compounds for […] under the same conditions. The compound stock solution was prepared in DMSO, and the final concentration of DMSO was kept at 0.1%. Control cultures were treated with only 1% ethanol.
(§3) Cells from the MCF-7 and MCF-10 lines were seeded into 96-well plates at a density of 1 × 10^4 per well. After 24 h, the compounds were added at increasing concentrations (500–100–20-4–0.8–0.16–0.032–0 µM), and the cells were incubated at 37 °C in a humidified 5% CO2/95% air mixture for 48 h. Following incubation, the cells were washed twice with PBS, and 100 μL of 0.5 mg/mL MTT solution was added to each well. After 2 h of incubation, the MTT solution was removed, and the formazan crystals were dissolved in 50 μL of DMSO per well. Absorbance was then measured at 570 nm using a microplate ELISA reader. IC50 values, determined from three independent experiments conducted in triplicate, were calculated using SigmaPlot® software (version 11.0). The selectivity index (SI) of each compound in each cell line was determined by calculating the ratio of the IC50 values for MCF-10 and cancer cell lines. Compounds were considered selective if SI values were equal to or greater than 3 [46].

[1] = tested on: caspases-3/7 in MCF-7 cells; assay: Caspase-Glo 3/7 assay; conditions: MCF-7, 50 μM, 24 h, versus control
Method: Since ROS levels were increased in the MCF-7 cancer cell line in response to the compounds, it is important to determine whether this effect is associated with the onset of apoptotic cell death. […] Cells were treated with the selected compounds at 50 μM for 24 h, incubated in situ with the Caspase-Glo 3/7 marker assay, and then analyzed in a luminometer.
The activity of caspase 3/7 in MCF-7 cells treated with the compounds was determined using a Caspase-Glo-3/7 Assay kit from Promega (UK). This assay is a homogenous and luminescent method that measures the activity of caspase-3 and -7, which are essential for apoptosis. MCF-7 cells (1 × 10^4 cells per well) were seeded in a 96-well plate and incubated overnight. The cells were then treated for 24 h with the compounds (50 µM) and a blank as a control. After treatment, the Caspase-Glo® 3/7 reagent was prepared according to the manufacturer’s instructions. Specifically, 100 μL of the reagent was added to 100 μL of culture medium containing the treated cells in each well, and the mixture was incubated for 1 h at room temperature in the dark. Luminescence was then measured using a luminometer (Berthold Sirius Single Tube Luminometer). The fold change in caspase activity was calculated by expressing the average luminescence of each treatment as a fold change with respect to the average luminescence of the negative control.
Figure 6 The effect of the compounds on caspases-3/7 activity in cells from the human breast cancer cell line MCF-7. Caspases-3/7 activity was determined in MCF-7 cells following treatment with the compounds (50 μM) for 24 h. The data are reported as the ratio of activity in treated cells vs. the control (1% ethanol), which were arbitrarily assigned a unitary value. * p < 0.05 versus control cells (Ctrl). The data are reported as the mean values ± S.D. of three different experiments with samples in triplicate.

MCF-7 cells [2] = assay: Mitochondrial membrane potential (rhodamine 123, flow cytometry); conditions: MCF-7, compounds at respective IC50, 24 h
Method: To determine whether the toxic effects of selected sesquiterpenes (10c, 11c, 12c, 13c, and 14c) are due to the production of ROS and subsequent apoptosis, the mitochondrial membrane potential was measured. With this aim, a protocol using rhodamine 123 staining and flow cytometry was established to study the effect of the selected compounds [40]. The accumulation of rhodamine 123 in mitochondria is associated with the maintenance of the electrochemical gradient in mitochondria. Daunorubicin was used as a positive control (C+). The results are presented as the percentage of cells with increased mitochondrial membrane permeability.
Rhodamine 123 (Rho123), a positively charged dye that reacts to voltage changes and enters the mitochondria, was utilized to detect modifications in the mitochondrial membrane potential. The cells were exposed to specific compounds (IC50 values for each compound) for 24 h. Control cells that had not been treated were used as negative control, while cells treated with daunorubicin at a concentration of 1 µM served as the positive control. Following this, the cells were incubated with Rho123 (at a concentration of 1 µM) in darkness for an hour at 37 °C. Afterward, the medium was taken out, and the cells were washed with PBS. The cells were then dissociated using trypsin and collected through centrifugation for 10 min at 1500×g. The supernatant was thrown away, and the cell pellets were resuspended in PBS and analyzed using flow cytometry with the FL1 filter. The results are shown as the percentage of Rho123-stained cells.
Figure 5 The effect of the compound’s treatment on mitochondrial membrane potential. […] The data represent the means ± S.D. of at least three experiments with triplicate samples.

MCF-7 cells [3] = assay: MTT cytotoxicity assay on MCF-7 cells; conditions: for IC50: Homo sapiens, MCF7, MTT, 48 h incubation, IC50 ± SD, three experiments in triplicate; for Selectivity Index (SI): SI = IC50 on MCF-10 cells/IC50 on MCF-7 cells
Method: as §1, §2, §3

Row | mitochondrial membrane permeability (MCF-7 cells [2]) | SMILES | IC50 (MCF-10 cells) | caspases-3/7 activity [1] | IC50 (MCF-7 cells [3]) | Selectivity Index (SI) (MCF-7 cells [3])
1 | did not increase | COc1ccc(/C=C2\C(C)=CCC3C(C)(C)CCC[C@]23C)cc1OC (stereo partly drawn) [Compound 13c, (4aS)-5-((E)-3,4-Dimethoxybenzylidene)-1,1,4a,6-tetramethyl-1,2,3,4,4a,5,8,8a-octahydronaphthalene] | 135 ± 26.6 µM | considerably enhanced | 22.5 ± 2.6 µM | 6.0
2 | did not increase | COc1cc2c(cc1OC)[C@]1(C)CCC3C(C)(C)CCC[C@]3(C)C1=C2 (stereo partly drawn) [Compound 14c, (6aR,11bS)-8,9-Dimethoxy-4,4,6a,11b-tetramethyl-2,3,4,4a,5,6,6a,11b-octahydro-1H-benzo[a]fluorene] | 393 ± 47.1 µM | activated caspases-3/7; also recorded: considerably enhanced | 9 ± 2.8 µM | 44

Source: paper PMC12111648, “New Dimethoxyaryl-Sesquiterpene Derivatives with Cytotoxic Activity Against MCF-7 Breast Cancer Cells: From Synthesis to Topoisomerase I/II Inhibition and Cell Death Mechanism Studies” (International Journal of Molecular Sciences, 2025)
